Assay [1] concerns the target T1, human MIF (Homo sapiens, UniProt P14174).
T1 sequence (P14174 2-115 limits assumed): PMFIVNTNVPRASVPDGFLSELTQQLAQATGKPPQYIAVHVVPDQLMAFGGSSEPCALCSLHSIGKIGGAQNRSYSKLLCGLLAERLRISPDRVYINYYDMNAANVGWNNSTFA
In words: HPP tautomerase assay. Type of assay: biochemical. The note with it: for Ki: tautomerase inhibition, HPP substrate, pH 6–6.1.

For assay [2], the system named is MIF. To be noted: covalent inhibitor: result is time-dependent; cited from earlier work.
Assay [3] concerns the target T1, human MIF. The experiment in a line: Competitive fluorescence polarization. Type of assay: binding. The note with it: for Kd: 0.004 μM tracer B, […] MIF, pH 7.4, Kd from IC50 via eq 1.
In assay [4] the target is MIF. To be noted: DOPA assay; cited from earlier work.
Assay [5] deals with MIF binding to CD74. To be noted: blocking binding of MIF to CD74; cited from earlier work.
The test system of assay [6] is MIF. The note with it: cited from earlier work.

Several values for one entry are separate records, joined by “and”; a condition that tells them apart may be missing. Equal entries are not always repeated. Where two headings read alike, the source gives them in different places.

The source of these data is paper PMC4945996 (Journal of the American Chemical Society, 2016).

With `O=C(O)c1ccc(Oc2cn(-c3ccc(O)c(F)c3)nn2)cc1` [5b], in assay [1], the inhibition constant Ki came out at 1700 nM.

With `Ic1cc(-c2ccccc2)ncn1` [4-IPP], in assay [2], the half-inhibitory concentration (IC50) is 4500 nM. Binding in assay [3] was put at a Kd of 446 nM. Besides, the “time dependence of FP results” value in assay [3] (FP monitored for 1 h after the 20 min incubation) was “time dependent”.

`O=c1c(-c2ccc(O)c(O)c2)coc2cc(O)ccc12` [Orita-13]: the Ki in assay [4] is 38 nM.

Take `O=C1Oc2cc(O)ccc2CN1C1CCCCC1` [NVS-1]: the Ki in assay [1] was 569 nM. The “fold weaker binding (cyclohexyl analogue vs NVS-2)” value in assay [3] is reported as “ca. 10 fold”. In assay [3] (Kd), this molecule showed a dissociation constant (Kd) of 456 nM.

With `COc1cc(-c2ccc(N=Nc3ccc4c(S(=O)(=O)O)cc(S(=O)(=O)O)c(N)c4c3O)c(OC)c2)ccc1N=Nc1ccc2c(S(=O)(=O)O)cc(S(=O)(=O)O)c(N)c2c1O` [PSB], the IC50 in assay [5] is 810 nM.

As for `O=C1Oc2cc(O)ccc2CN1c1ccc(O)cc1` [NVS-6], the inhibitory constant (Ki) in assay [1] worked out at 185 nM. Besides, the dissociation constant Kd in assay [3] (Kd) was found to be 159 nM.

As for `COc1ccc(N2Cc3ccc(O)cc3OC2=O)cc1` [NVS-2], the IC50 in assay [6] (HPP tautomerase assay) and in assay [6] (previously reported) was 20 nM throughout. The inhibition constant Ki in assay [1] was ~30 nM and 30 nM. In addition, in assay [1] (from Ki values), the “fold more potent than (R)-ISO-1” value is recorded as “roughly 1000 fold”. In assay [3], the “fold stronger binding than NVS-6” value stood at 3 fold. The ligand efficiency in assay [3] ((−2.3RT/HAC) log Kd) came out at 0.50.

Take `COc1ccc(Oc2cn(-c3ccc(O)c(F)c3)nn2)cc1` [5a]: the Ki in assay [1] was found to be 1900 nM.
